Test results reported in US20050267050A1, “Compositions and methods for treating mdma-induced toxicity” (YEDA RESEARCH AND DEVELOPMENT CO. LTD., priority 2002, published 2005).

Assays:
Assay type in all cases: in vivo
[1] = system: G1 cDNA (mGAT1); assay: DD-PCR analysis of brain mRNA of MDMA-treated mice; design: key to Intensity of G1 cDNA band, MDMA, F. Cortex: − (lowest); ++ (highest); conditions: 2 hr
Procedure: (§1) Young adult male C57BI/6J mice (2-3 months old) were injected intraperitoneally with 0.25 ml saline (control) or saline containing MDMA (10 mg/kg). Unless otherwise indicated, mice were sacrificed 2 hr after drug treatment and frontal cortex and/or midbrain were rapidly dissected in ice-cold saline. The dissected brain tissue was frozen on dry ice, 0.5 ml Tri Reagent was added, and samples were stored at −70° C. Serotonin transporter knockout mice (−/−) (Bengel et al., 1998) were used when indicated.
Frontal cortex or midbrain samples frozen with Tri Reagent were crushed, 1 ml Tri Reagent was added and total RNA was isolated according to the manufacture's protocol. RNA samples were treated with RNase-free DNase I for 30 minutes at 37° C. and RNA quality and yield was verified on 1.2% formaldehyde agarose gel. First-strand cDNA was prepared from 0.5 μg total RNA as template and 0.8 μM (dT)12GC, (dT)12CC or oligo(dT)18 as a primer, using Superscript amplification kit. DD-PCR (differential display-PCR) was carried out in 20 μl total volume, and included 0.8 μM of one of the 3′ primers (dT)12GC, (dT)12CC or (dT)12, the arbitrary 5′ primer 5′-GGACAGCTTC-3′, 2.5 μM dNTP, 2.5 mM MgCl2, 2 μCi α-^33P-[dATP] (3000 Ci/mM), cDNA prepared from 50 ng total RNA, and 2.5 units of Taq DNA polymerase. […] An aliquot (6 μl) was analysed on a denatured DNA sequencing gel. […]

[2] = system: MC2 cDNA; assay: DD-PCR analysis of brain mRNA of MDMA-treated mice; design: key: − (lowest); ++ (highest); conditions: MDMA one i.p. injection, 10 mg/kg, 2 hr
Procedure: as §1
(§2) Frontal cortex or midbrain samples frozen with Tri Reagent were crushed, 1 ml Tri Reagent was added and total RNA was isolated according to the manufacture's protocol. RNA samples were treated with RNase-free DNase I for 30 minutes at 37° C. and RNA quality and yield was verified on 1.2% formaldehyde agarose gel. First-strand cDNA was prepared from 0.5 μg total RNA as template and 0.8 μM (dT)12GC, (dT)12CC or oligo(dT)18 as a primer, using Superscript amplification kit. DD-PCR (differential display-PCR) was carried out in 20 μl total volume, and included 0.8 μM of one of the 3′ primers (dT)12GC, (dT)12CC or (dT)12, the arbitrary 5′ primer 5′-GGACAGCTTC-3′, 2.5 μM dNTP, 2.5 mM MgCl2, 2 μCi α-^33P-[dATP] (3000 Ci/mM), cDNA prepared from 50 ng total RNA, and 2.5 units of Taq DNA polymerase. The DD-PCR reaction was started with 3 minutes incubation at 94° C., followed with 40 cycles of 30 sec at 94° C., 2 minutes at 40° C. and 30 sec at 72° C., and finally 5 minutes at 72° C. Then, 10 μl of the reaction was mixed with 10 μl of 95% formamide containing 0.05% bromophenol blue and 0.05% xylene cyanol, and incubated for 5 minutes at 75° C. An aliquot (6 μl) was analysed on a denatured DNA sequencing gel. The gel was dried and exposed to Phosphoimage Analyzer (Fujix) or to X-ray film. The DNA bands expressed differentially upon MDMA-treatment were identified, cut from the gel, socked in H2O, boiled for 15 minutes and centrifuged (10000 g). Ten μl of the supernatant was used as template to re-amplify the band of interest, with the same primers and PCR conditions described for DD-PCR except that 25 μM dNTP and no isotopes were used. Ten μl of the PCR reaction was run on a 2% agarose gel. The band of the predicted size was excised, purified with DNA extraction kit, and cloned into pGEM-T Easy Vector. Plasmid DNA from successful clones was purified with Plasmid Mini Kit and subjected for sequencing (Biological Services, Weizmann Institute of Science). Sequence data were compared with GeneBank (NCBI).
(§3) Total RNA from frontal cortex (“FC”) and midbrain (“MB”) of saline—(denoted as “−”) and MDMA-treated (denoted as “+”) mice (one i.p. injection, 10 mg/kg, 2 hr) were used for DD-PCR analysis. The random primers used were dT12CC for MC1, dT12GG for MG3, MG4, MG5 and MG6, and dT18 for G1. Different but characteristic cDNA products were obtained with each one of the three primers. […] Some of the altered expression levels are common for both brain regions while others are specific either to the frontal cortex or the midbrain.

[3] = system: MG2 cDNA; assay: DD-PCR analysis of brain mRNA of MDMA-treated mice; design: key: − (lowest); ++ (highest); conditions: MDMA one i.p. injection, 10 mg/kg, 2 hr; frontal cortex
Procedure: as §1, §2, §3

[4] = system: MG3 cDNA; assay: DD-PCR analysis of brain mRNA of MDMA-treated mice; design: key: − (lowest); ++ (highest); conditions: MDMA one i.p. injection, 10 mg/kg, 2 hr
Procedure: as §1, §2, §3

[5] = system: MG5 cDNA; assay: DD-PCR analysis of brain mRNA of MDMA-treated mice; design: key: − (lowest); ++ (highest); conditions: MDMA one i.p. injection, 10 mg/kg, 2 hr
Procedure: as §1, §2, §3

[6] = system: MC1 cDNA; assay: DD-PCR analysis of brain mRNA of MDMA-treated mice; design: key to Intensity of MC1 cDNA band, MDMA, F. Cortex / Intensity of MC1 cDNA band, MDMA, MidBrain: − (lowest); ++ (highest); conditions: 2 hr
Procedure: as §1
as §2, with “Ten μl of the supernatant was used as template to re-amplify the band of interest, with the same primers and PCR conditions described for DD-PCR except that 25 μM dNTP and no isotopes were used. Ten μl of the PCR reaction was run on a 2% agarose gel. The band of the predicted size was excised, purified with DNA extraction kit, and cloned into pGEM-T Easy Vector. Plasmid DNA from successful clones was purified with Plasmid Mini Kit and subjected for sequencing (Biological Services, Weizmann Institute of Science). Sequence data were compared with GeneBank (NCBI).” left out

[7] = system: mGAT1; assay: Semi-quantitative RT-PCR of brain mRNA of MDMA-treated mice; conditions: for Increase of mGAT1 expression, estimated by scanning: MDMA 10 mg/kg i.p., 2 hr, GAPDH as standard
[8] = system: mGAT2; assay: as above
[9] = system: mGAT4; assay: as above; conditions: for Increase of mGAT4 mRNA level: MDMA 10 mg/kg i.p., 2 hr, GAPDH for semi-quantitation; for Return of mGAT4 increase to control levels: within 2 days
[10] = system: MC2, MG2 and MG4 cDNAs; assay: as above; conditions: FIG. 2B, MDMA 10 mg/kg i.p., 2 hr
[11] = system: GAPDH; assay: Real-time PCR analysis of midbrain RNA of MDMA-treated mice
Procedure: as §1
(§4) Real-time PCR analysis was performed with the LightCycler System (Roche Molecular Biochemicals) and LightCycler-FastStart DNA Master SYBR Green I, according to the manufacturer instructions. Reactions (in 20 μl) included template cDNA prepared from 0.1-0.5 μg total RNA, 3 mM MgCl2 and 0.25-0.5 μM primers. Buffer, dNTP mixture (with dUTP instead of dTTP), Taq DNA polymerase, and SYBR Green I dye were included in the ‘Hot start’ reaction as recommended. Typical protocol was as follows. Ten minutes at 95° C. followed by 40 cycles of amplification, starting with 15 sec at 95° C., 10 sec at 60° C. and 10 sec at 72° C. The extension period varied with each specific primer, depending on the product length (about 1 sec/25 bp).
(§5) For quantification analysis, 3-5 standards of PCR products with known concentration were amplified under the same cycling conditions, and GAPDH was amplified as an internal control to correct for variations in the amount of cDNA. Real-time PCR products of each assay were also subjected to agarose gel electrophoresis, to further confirm amplification specificity. Quantitation was assessed with LightCycler Data Analysis (LCDA) software by the Fit Points method. Melting curve of the cDNA product was determined by incubation at 95° C. for 0 sec, 15 sec at 65° C. and 0 sec at 95° C., followed by a cooling of 30 sec at 40° C.
(§6) RNA extracted from the midbrain of saline- or MDMA-treated mice was analyzed with the LightCycler System, using specific primers for mGAT1 and mGAT4, along with GAPDH as a control (see Materials and Methods). […] (FIG. 4F).

[12] = system: mGAT1; assay: as above
Procedure: as §1, §4, §5, §6

[13] = system: mGAT4; assay: as above
Procedure: as §1, §4, §5, §6

[14] = system: mGAT1 protein; assay: Western immunoblotting with anti-GAT1 antibodies, MDMA-treated mice; conditions: for GAT1 protein, fold of control: SERT knockout (−/−) mice; for Increase of GAT1 immunoreactivity: wild type mice
Procedure: as §1
Protein was isolated with Tri Reagent according to the protocol provided by the manufacturer. After precipitation with isopropanol, the protein pellet was washed three times with 0.3M guanidine hydrochloride and 95% ethanol, followed by washing with ethanol, dried, and dissolved in 10 M urea containing 50 mM dithiothreitol (DTT). Samples were kept at room temperature for 1 hr before boiling for 3 minutes, sonicated on ice for 2 minutes, and stored at −20° C. Protein concentration was determined with the micro BCA protein assay reagent kit. Samples of 30 μg protein run on SDS-PAGE (5% stacking gel and 8% or 10% separating gel), with Kaleidoscope pre-stained standard proteins as molecular weight markers. The proteins were transferred to nitrocellulose membranes preincubated for 2 hr in Tris-buffered saline (TBS) with 10% non-fat dry milk and 0.1% Tween 20, and incubated overnight at 4° C. or 2 hr at room temperature with anti-GAT1 antibodies (1:500 in TBS containing 5% non-fat dry milk). Membranes were then washed three times with TBS containing 0.1% Tween 20, incubated for 2 hr at room temperature with the second antibody, horseradish peroxidase coupled to F(ab)2 anti-rabbit IgG, washed four times with the same buffer, and subjected to ECL Western immublotting detection reagents.
It was essential to determine whether the MDMA-induced increase in mGAT1 mRNA was correlated with a similar change in protein level. […] These anti-GAT1 antibodies were also useful to verify MDMA effect on the expression of mGAT1 in the SERT knockout mice (−/−) that behaviorally are nonresponsive to MDMA (Bengel et al., 1998).

[15] = MDMA one i.p. injection, 10 mg/kg, frontal cortex
[16] = both frontal cortex and midbrain, MDMA 10 mg/kg i.p.

Structure (SMILES): CNC(C)Cc1ccc2c(c1)OCO2 (stereo not shown) [MDMA, 3,4-Methylenedioxymethamphetamine]
- Intensity of G1 cDNA band, MDMA, F. Cortex [1, 15]: ++
- Change of intensity of cDNA G1 in MDMA-treated mice (FIG. 1C) [1, 16]: increased
- Intensity of MC2 cDNA band, MDMA, MidBrain [2]: ++
- Intensity of MG2 cDNA band, MDMA, F. Cortex [3]: ++
- Intensity of MG3 cDNA band, MDMA, F. Cortex ([4]; frontal cortex): −
- Intensity of MG3 cDNA band, MDMA, MidBrain ([4]; midbrain): −
- Intensity of MG5 cDNA band, MDMA, F. Cortex ([5]; frontal cortex): −
- Intensity of MG5 cDNA band, MDMA, MidBrain ([5]; midbrain): −
- Intensity of MC1 cDNA band, MDMA, F. Cortex [6, 15]: −
- Intensity of MC1 cDNA band, MDMA, MidBrain ([6]; MDMA one i.p. injection, 10 mg/kg, midbrain): −
- Change of cDNA band MC1 in MDMA-treated mice (FIG. 1B) [6, 16]: profound decrease
- Increase of mGAT1 expression, estimated by scanning ([7]; frontal cortex): 1.58 fold
- Increase of mGAT1 expression, estimated by scanning ([7]; midbrain): 1.74 fold
- Time for which MDMA effect on mGAT1 expression sustained ([7]; time course 2 hours-7 days after treatment): 7 days
- Effect on mGAT2 expression ([8]; MDMA 10 mg/kg i.p., 2 hr, frontal cortex and midbrain): insignificant effect
- mGAT2 expression in time course ([8]; from 2 hours to 7 days after treatment): did not change
- Increase of mGAT4 mRNA level ([9]; frontal cortex): 4.6 fold
- Return of mGAT4 increase to control levels ([9]; frontal cortex): partially
- Increase of mGAT4 mRNA level ([9]; midbrain): 1.7 fold
- Return of mGAT4 increase to control levels ([9]; midbrain): completely
- MDMA-induced changes of MC2, MG2 and MG4 expression [10]: 1.5-2.2 fold
- Increase of GAPDH level [11]: 19%
- GAPDH level after MDMA treatment (real-time PCR amount) ([11]; control 514×10^−5 pmole): 0.00612 pmol
- Net increase in mGAT1 levels (corrected for GAPDH) [12]: 5.2 fold
- mGAT1 expression after MDMA treatment (real-time PCR amount) ([12]; control 3.43×10^−5 pmole): 0.000211 pmol
- Increase in mGAT4/GAPDH ratio compared with controls [13]: 1.52 fold
- GAT1 protein, fold of control ([14]; frontal cortex): 1.3 fold
- GAT1 protein, fold of control ([14]; midbrain): 1.0 fold
- Induction of GAT1 protein upon MDMA treatment ([14]; SERT −/− mice): no significant induction
- Increase of GAT1 immunoreactivity ([14]; frontal cortex): 2.1 fold
- Increase of GAT1 immunoreactivity ([14]; midbrain): 2.4 fold
